Results taken from patent publication US20100227918A1, “STREPTOMYCES-DERIVED ANTIMICROBIAL COMPOUND AND METHOD OF USING SAME AGAINST ANTIBIOTIC-RESISTANT BACTERIA” (Taro Pharmaceuticals North America, Inc., priority 2006, published 2010).

What was measured:
Serratia marcesens = assay: antimicrobial paper disc assay (zone of inhibition); format: cell-based; conditions: known antibiotic controls, zone diameters of the classes (L1)
Experimental: (§1) Antimicrobial Assays: 10 μl of the 10-fold concentrated supernatants from each of the six (6) isolated colony was assayed for their antimicrobial activity against the twelve (12) microorganisms as listed above. The antimicrobial assay used in the tertiary screening was similar to that used in the secondary screening. In brief, tested microorganism strains were grown in optimal culture media for growth at the optimal growth temperature for about 16 hours with shaking. Tested plates were prepared as follows. First, base agar layer-media were prepared as per USP. The media were then autoclaved, and cooled to 48° C. Once cooled to 48° C., 20 mL of the cooled media was poured onto a sterile polystyrene petri dish. This base agar layer was further allowed to solidify for 30 minutes (agar was added as a solidifying agent). Second, seed agar layers were prepared as per USP. The media were then autoclaved, and cooled to 48° C. Once cooled to 48° C., 1 mL of tested microorganism strain (already grown for 16 hours as described in the first step above) was added to the seed agar media. The seed agar media was gently swirled to mix. Five (5) mL of the seed agar media was pipetted on top of the base agar layer. Care was taken to avoid air bubbles. This seed agar media was allowed to cool for about 15 minutes at room temperature. Plates were stored at 4° C. until needed.
(§2) Ten (10) μl of each of the concentrated supernatants were pipetted onto a sterile filter paper disc. The sterile filter paper discs were dried in air for approximately 5 minutes. The sterile filter paper discs were carefully applied onto the surface of the plates. Plates holding sterile filter discs were incubated either at 37° C. (for Staphylococcus aureus, MRSA, VRSA, Enterococcus faecilis, VRE, Micrococcus luteus, E. coli, Serratia marcesens and Pseudomonas aeriginosa) or at 30° C. (for Candida albicans) for a time period of 24 hours. Negative controls included liquid culture media. Positive controls included known antimicrobial compounds such as vancomycin (against gram-positive bacteria), tetracycline (against gram-positive/gram-negative bacteria), and amphotericin B (against yeast/fungi).
(§3) In general, a zone of inhibition visualized as having a diameter of about 7-10 mm is classified as “+”; a diameter of about 11-14 mm is “++”; a diameter of about 15-18 mm is “+++”; a diameter of about 19-22 mm is “++++”, and a diameter of greater than 23 mm is classified as “+++++”.
(§4) The HPLC-purified material was diluted with sterile distilled water to a concentration of 0.1 μg/mL. The diluted HPLC-purified material was assayed for antimicrobial activity using the antimicrobial assay as described above. The diluted HPLC-purified material was assayed for its antimicrobial activity against ten (10) microorganisms; namely, 1) Staphylococcus aureus; 2) methicillin-resistant Staphylococcus aureus; 3) vancomycin-resistant Staphylococcus aureus; 4) Enterococcus faecilis; 5) vancomycin-resistant Enterococcus faecilis; 6) Mycobacterium smegmatis; 7) E. coli; 8) Pseudomonas aeriginosa; 9) Serratia marcesens; and 10) Candida albicans.

Pseudomonas aeriginosa = assay: as above; format: cell-based; conditions: known antibiotic controls, zone diameters of the classes (L1)
Experimental: as §1, with “The” for “Antimicrobial Assays: 10 μl of the 10-fold concentrated supernatants from each of the six (6) isolated colony was assayed for their antimicrobial activity against the twelve (12) microorganisms as listed above. The”, “was performed as described” for “used”, “USP (See, Molecular Cloning, A Laboratory Manual).” for “the tertiary screening was similar to that used in the secondary screening.”
as §2, with “supernatants (described above)” for “supernatants”, “plates (prepared as described above).” for “plates.”, “(for” for “(for Staphylococcus aureus, MRSA, VRSA, Enterococcus faecilis, VRE,”, “coli,” for “coli, Serratia marcesens”, “timer” for “time”
as §1
as §2, with “media.” for “media. Positive controls included known antimicrobial compounds such as vancomycin (against gram-positive bacteria), tetracycline (against gram-positive/gram-negative bacteria), and amphotericin B (against yeast/fungi).”

E. coli = assay: as above; format: cell-based; conditions: known antibiotic controls, zone diameters of the classes (L1)
Experimental: as §1, with “The” for “Antimicrobial Assays: 10 μl of the 10-fold concentrated supernatants from each of the six (6) isolated colony was assayed for their antimicrobial activity against the twelve (12) microorganisms as listed above. The”, “was performed as described” for “used”, “USP (See, Molecular Cloning, A Laboratory Manual).” for “the tertiary screening was similar to that used in the secondary screening.”
as §2, with “supernatants (described above)” for “supernatants”, “plates (prepared as described above).” for “plates.”, “(for” for “(for Staphylococcus aureus, MRSA, VRSA, Enterococcus faecilis, VRE,”, “coli,” for “coli, Serratia marcesens”, “timer” for “time”
as §1
as §2, with “media.” for “media. Positive controls included known antimicrobial compounds such as vancomycin (against gram-positive bacteria), tetracycline (against gram-positive/gram-negative bacteria), and amphotericin B (against yeast/fungi).”

Mycobacteria smegmatis = conditions: Journal of Antibiotics 29(7), 756-8; cited from earlier work
Enterococcus faecilis = assay: antimicrobial paper disc assay (zone of inhibition); format: cell-based; conditions: HPLC-purified material (>99% purity) diluted to 0.1 μg/mL, known antibiotic controls, zone diameters of the classes (L1)
Experimental: as §1, §2, §3, §4

[1] = tested on: Vancomycin-Resistant Staphylococcus aureus; assay: as above; format: cell-based; conditions: HPLC-purified material (>99% purity) diluted to 0.1 μg/mL, zone diameters of the classes (L1)
Experimental: as §1, §2, §3, §4

Mycobacterium smegmatis = assay: as above; format: cell-based; conditions: HPLC-purified material (>99% purity) diluted to 0.1 μg/mL, known antibiotic controls, zone diameters of the classes (L1)
Experimental: as §1, §2, §3, §4

[2] = tested on: Vancomycin-Resistant Enterococcus faecilis; assay: as above; format: cell-based; conditions: HPLC-purified material (>99% purity) diluted to 0.1 μg/mL, zone diameters of the classes (L1)
Experimental: as §1, §2, §3, §4

Staphylococcus aureus = assay: as above; format: cell-based; conditions: HPLC-purified material (>99% purity) diluted to 0.1 μg/mL, known antibiotic controls, zone diameters of the classes (L1)
Candida albicans = assay: as above; format: cell-based; conditions: known antibiotic controls, zone diameters of the classes (L1)
Experimental: as §1, with “The” for “Antimicrobial Assays: 10 μl of the 10-fold concentrated supernatants from each of the six (6) isolated colony was assayed for their antimicrobial activity against the twelve (12) microorganisms as listed above. The”, “was performed as described” for “used”, “USP (See, Molecular Cloning, A Laboratory Manual).” for “the tertiary screening was similar to that used in the secondary screening.”
as §2, with “supernatants (described above)” for “supernatants”, “plates (prepared as described above).” for “plates.”, “(for” for “(for Staphylococcus aureus, MRSA, VRSA, Enterococcus faecilis, VRE,”, “coli,” for “coli, Serratia marcesens”, “timer” for “time”
as §1
as §2, with “media.” for “media. Positive controls included known antimicrobial compounds such as vancomycin (against gram-positive bacteria), tetracycline (against gram-positive/gram-negative bacteria), and amphotericin B (against yeast/fungi).”

[3] = tested on: Methicillin-Resistant Staphylococcus aureus; assay: as above; format: cell-based; conditions: HPLC-purified material (>99% purity) diluted to 0.1 μg/mL, known antibiotic controls, zone diameters of the classes (L1)
Experimental: Ten (10) μl of each of the concentrated supernatants were pipetted onto a sterile filter paper disc. The sterile filter paper discs were dried in air for approximately 5 minutes. The sterile filter paper discs were carefully applied onto the surface of the plates. Plates holding sterile filter discs were incubated either at 37° C. […]

[4] = tested on: penicillin-resistant Staphylococcus; conditions: prior art; cited from earlier work
[5] = tested on: some gram-positive bacteria (such as Staphylococcus and Streptococcus); conditions: prior art, U.S. Pat. No. 3,966,913 and Japanese patents; cited from earlier work
[6] = tested on: methicillin or vancomycin resistant gram-positive bacteria; conditions: prior art; cited from earlier work
[7] = HPLC-purified material (>99% purity) diluted to 0.1 μg/mL, paper disc assay
[8] = tertiary screening, 10 μl of 10-fold concentrated supernatant on paper disc, 37° C., 24 hours

Question: With gentamicin as the compound, how does the “Antimicrobial Activity (zone of inhibition), Serratia marcesens” value (Serratia marcesens; [7]) read?
Answer: gentamicin (+++++)

Question: What about the “Antimicrobial Activity (zone of inhibition), Serratia marcesens” value (Serratia marcesens; [8]) of the same compound?
Answer: gentamicin (+++++)

Question: What about the “Antimicrobial Activity (zone of inhibition), Pseudomonas aeriginosa” value (Pseudomonas aeriginosa; [7]) of the same compound?
Answer: gentamicin (+++++)

Question: And the “Antimicrobial Activity (zone of inhibition), Pseudomonas aeriginosa” value (Pseudomonas aeriginosa; [8])?
Answer: gentamicin (+++++)

Question: Which “Antimicrobial Activity (zone of inhibition), E. coli” value (E. coli; [7]) does the source give for `CN(C)[C@@H]1C(O)=C(C(N)=O)C(=O)[C@@]2(O)C(O)=C3C(=O)c4c(O)cccc4[C@@](C)(O)[C@H]3C[C@@H]12` [tetracycline] here?
Answer: tetracycline (+++++)

Question: And the “Antimicrobial Activity (zone of inhibition), E. coli” value (E. coli; [8])?
Answer: tetracycline (+++++)

Question: Which “antimicrobial activity against mycobacteria (i.e. Mycobacteria smegmatis)” value (Mycobacteria smegmatis) does the source give for `CC1OC2CC(=O)OC2C2=C1C(=O)c1c(ccc(C3CC(N(C)C)C(O)C(C)O3)c1O)C2=O` [Purified Lactoquinomycin, 2H-Furo[3,2-b]naphtho[2,3-d]pyran-2,6,11-trione,3,3a,5,11b-tetrahydro-7-hydroxy-5-methyl-8-[2,3,6-trideoxy-3-(dimethylamino)-β-D-arabino-hexopyranosyl]-,(3aR,5R,11bR)] here?
Answer: no antimicrobial activity

Question: And the “Antimicrobial Activity (zone of inhibition), Enterococcus faecilis” value (Enterococcus faecilis)?
Answer: +++

Question: And the “Antimicrobial Activity (zone of inhibition), Vancomycin-Resistant Staphylococcus aureus” value [1]?
Answer: +++++

Question: What about the “Antimicrobial Activity (zone of inhibition), Serratia marcesens” value (Serratia marcesens; [7]) of the same compound?
Answer: −

Question: And the “Antimicrobial Activity (zone of inhibition), Mycobacterium smegmatis” value (Mycobacterium smegmatis)?
Answer: +++++

Question: And the “Antimicrobial Activity (zone of inhibition), Vancomycin-Resistant Enterococcus faecilis” value [2]?
Answer: +++

Question: And the “Antimicrobial Activity (zone of inhibition), Staphylococcus aureus” value (Staphylococcus aureus)?
Answer: +++++

Question: And the “Antimicrobial Activity (zone of inhibition), E. coli” value (E. coli; [7])?
Answer: −

Question: What about the “Antimicrobial Activity (zone of inhibition), Candida albicans” value (Candida albicans; [7]) of the same compound?
Answer: −

Question: What about the “Antimicrobial Activity (zone of inhibition), Pseudomonas aeriginosa” value (Pseudomonas aeriginosa; [7]) of the same compound?
Answer: −

Question: What about the “Antimicrobial Activity (zone of inhibition), Methicillin-Resistant Staphylococcus aureus” value [3] of the same compound?
Answer: +++++

Question: What does the source list for `CC1OC2CC(=O)OC2C2=C1C(=O)c1c(ccc(C3CC(N(C)C)C(O)C(C)O3)c1O)C2=O` (stereo not shown) [Lactoquinomycin A]?
Answer: antimicrobial activity against certain penicillin-resistant Staphylococcus [4]: exert an antimicrobial activity; antimicrobial activity against some gram-positive bacteria (such as Staphylococcus and Streptococcus) [5]: exert an antimicrobial activity; antimicrobial activity against methicillin or vancomycin resistant gram-positive bacteria [6]: no antimicrobial activity

Question: What does the source list for `C[C@@H]1[C@H](O)[C@@H](C)/C=C/C=C/C=C/C=C/C=C/C=C/C=C/[C@H](O[C@@H]2O[C@H](C)[C@@H](O)[C@H](N)[C@@H]2O)C[C@@H]2O[C@](O)(C[C@@H](O)C[C@@H](O)[C@H](O)CC[C@@H](O)C[C@@H](O)CC(=O)O[C@H]1C)C[C@H](O)[C@H]2C(=O)O` [amphotericin B]?
Answer: Antimicrobial Activity (zone of inhibition), Candida albicans (Candida albicans; [7]): amphotericin B (+++++); Antimicrobial Activity (zone of inhibition), Candida albicans (Candida albicans; tertiary screening, 10 μl of 10-fold concentrated supernatant on paper disc, 30° C., 24 hours): amphotericin B (+++++)
